#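 Method: 48-hour compound exposure of cells in 96-well plates, five concentrations, linear interpolation of endpoints. The concentration for 50% growth inhibition is given as GI50.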 Active and inactive are the calls of the source. Cut-off read from the data, not from the text of the source: active = GI50 up to about 1.1 µM and inactive = higher.
# Legend:
# Test in all cases: NCI tumour cell line growth inhibition, 48 h
# [1] = system: 786-0
# [2] = system: A498
# [3] = system: A549
# [4] = system: ACHN
# [5] = system: CAKI-1
# [6] = system: CCRF-CEM
# [7] = system: COLO 205
# [8] = system: DLD-1
# [9] = system: DMS-114
# [10] = system: DMS-273
# [11] = system: EKVX
# [12] = system: HCC 2998
# [13] = system: HCT-116
# [14] = system: HCT-15
# [15] = system: HL-60
# [16] = system: HOP-18
# [17] = system: HOP-62
# [18] = system: HOP-92
# [19] = system: HT-29
# [20] = system: IGROV-1
# [21] = system: K562
# [22] = system: KM-20L2
# [23] = system: KM12
# [24] = system: LOX IMVI
# [25] = system: LXFL 529
# [26] = system: M14
# [27] = system: M19-MEL
# [28] = system: MCF7
# [29] = system: MOLT-4
# [30] = system: Malme-3M
# [31] = system: NCI-H226
# [32] = system: NCI-H23
# [33] = system: NCI-H460
# [34] = system: NCI-H522
# [35] = system: NCI/ADR-RES
# [36] = system: OVCAR-3
# [37] = system: OVCAR-4
# [38] = system: OVCAR-5
# [39] = system: OVCAR-8
# [40] = system: RPMI-8226
# [41] = system: RXF 393
# [42] = system: RXF 631
# [43] = system: SF-268
# [44] = system: SF-295
# [45] = system: SF-539
# [46] = system: SK-MEL-28
# [47] = system: SK-MEL-2
# [48] = system: SK-MEL-5
# [49] = system: SK-OV-3
# [50] = system: SN12C
# [51] = system: SNB-19
# [52] = system: SNB-75
# [53] = system: SNB-78
# [54] = system: SR
# [55] = system: SW-620
# [56] = system: TK-10
# [57] = system: U-251
# [58] = system: UACC-257
# [59] = system: UACC-62
# [60] = system: UO-31
# [61] = system: XF498
structure (smiles),measurement,setting,value
CNC(=O)OCc1nc([S+](C)[O-])n(C)c1COC(=O)NC (stereo unspecified),GI50,[1],> 100 µM (inactive)
same,GI50,[2],38.7 µM (inactive)
same,GI50,[3],> 46.5 µM (inactive)
same,GI50,[4],> 24.2 µM (inactive)
same,GI50,[5],> 58.7 µM (inactive)
same,GI50,[6],> 100 µM (inactive)
same,GI50,[7],> 41.8 µM (inactive)
same,GI50,[8],> 100 µM (inactive)
same,GI50,[9],> 34.6 µM (inactive)
same,GI50,[10],> 100 µM (inactive)
same,GI50,[11],> 100 µM (inactive)
same,GI50,[12],> 100 µM (inactive)
same,GI50,[13],> 100 µM (inactive)
same,GI50,[14],> 100 µM
same,GI50,[15],> 100 µM (inactive)
same,GI50,[16],> 88.9 µM (inactive)
same,GI50,[17],> 100 µM (inactive)
same,GI50,[18],> 48.4 µM (inactive)
same,GI50,[19],> 100 µM (inactive)
same,GI50,[20],> 50.4 µM (inactive)
same,GI50,[21],> 100 µM (inactive)
same,GI50,[22],> 100 µM (inactive)
same,GI50,[23],> 100 µM (inactive)
same,GI50,[24],> 100 µM (inactive)
same,GI50,[25],> 23.1 µM (inactive)
same,GI50,[26],> 29.1 µM (inactive)
same,GI50,[27],> 45.1 µM (inactive)
same,GI50,[28],> 100 µM (inactive)
same,GI50,[29],> 100 µM (inactive)
same,GI50,[30],> 100 µM (inactive)
same,GI50,[31],> 100 µM (inactive)
same,GI50,[32],> 100 µM (inactive)
same,GI50,[33],> 100 µM (inactive)
same,GI50,[34],> 100 µM (inactive)
same,GI50,[35],> 100 µM (inactive)
same,GI50,[36],> 100 µM (inactive)
same,GI50,[37],> 51.9 µM (inactive)
same,GI50,[38],> 100 µM (inactive)
same,GI50,[39],> 100 µM (inactive)
same,GI50,[40],> 100 µM (inactive)
same,GI50,[41],> 100 µM (inactive)
same,GI50,[42],> 100 µM (inactive)
same,GI50,[43],> 100 µM (inactive)
same,GI50,[44],> 100 µM (inactive)
same,GI50,[45],> 100 µM (inactive)
same,GI50,[46],> 100 µM (inactive)
same,GI50,[47],> 100 µM (inactive)
same,GI50,[48],> 46.5 µM (inactive)
same,GI50,[49],> 44.1 µM (inactive)
same,GI50,[50],> 100 µM (inactive)
same,GI50,[51],> 100 µM (inactive)
same,GI50,[52],> 100 µM (inactive)
same,GI50,[53],> 60.5 µM (inactive)
same,GI50,[54],> 100 µM (inactive)
same,GI50,[55],> 46.5 µM (inactive)
same,GI50,[56],> 100 µM (inactive)
same,GI50,[57],> 100 µM (inactive)
same,GI50,[58],> 100 µM (inactive)
same,GI50,[59],> 49.1 µM (inactive)
same,GI50,[60],> 100 µM (inactive)
same,GI50,[61],> 100 µM (inactive)
